{
  "source": "ChEMBL document CHEMBL1153350",
  "about": "“Synthesis of actin-depolymerizing compounds” (Bioorg Med Chem Lett, 2009)",
  "key": {"[1]": {"assay": "Inhibition of F-actin depolymerization"}, "[2]": {"assay": "Cytotoxicity against human HeLaS3 cells", "assay_type": "functional, cell-based", "conditions": "HeLa S3"}},
  "data": [
    {"smiles": "C/C=C/[C@@H](OC(=O)[C@H](C)N(C)C)[C@H](C)[C@H](OC(C)=O)[C@H](C)/C=C/N(C)C=O", "values": [
      {"measurement": "IC50", "setting": "[1]", "result": 210, "unit": "µM"},
      {"measurement": "IC50", "setting": "[2]", "result": "> 10", "unit": "µg/mL"}
    ]},
    {"smiles": "CC(=O)O[C@@H]([C@@H](C)[C@@H](CC[C@H](C)[C@H](O)[C@H](C)[C@@H](O)CCO)OC(=O)[C@H](C)N(C)C)[C@H](C)/C=C/N(C)C=O", "values": [
      {"measurement": "IC50", "setting": "[1]", "result": 7.9, "unit": "µM"},
      {"measurement": "IC50", "setting": "[2]", "result": "> 10", "unit": "µg/mL"}
    ]},
    {"smiles": "CC(=O)O[C@@H]([C@@H](C)[C@@H](/C=C/c1ccccc1)OC(=O)[C@H](C)N(C)C)[C@H](C)/C=C/N(C)C=O", "values": [
      {"measurement": "IC50", "setting": "[1]", "result": 85, "unit": "µM"},
      {"measurement": "IC50", "setting": "[2]", "result": "> 10", "unit": "µg/mL"}
    ]},
    {"smiles": "CC(=O)O[C@@H]([C@@H](C)[C@@H](/C=C/CCCCc1ccccc1)OC(=O)[C@H](C)N(C)C)[C@H](C)/C=C/N(C)C=O", "values": [
      {"measurement": "IC50", "setting": "[1]", "result": 21, "unit": "µM"},
      {"measurement": "IC50", "setting": "[2]", "result": "> 10", "unit": "µg/mL"}
    ]},
    {"smiles": "CC(=O)O[C@@H]([C@@H](C)[C@@H](/C=C/CCc1ccccc1)OC(=O)[C@H](C)N(C)C)[C@H](C)/C=C/N(C)C=O", "values": [
      {"measurement": "IC50", "setting": "[1]", "result": 47, "unit": "µM"},
      {"measurement": "IC50", "setting": "[2]", "result": "> 10", "unit": "µg/mL"}
    ]}
  ]
}
